{"source": "patent US20230203043A1", "about": "“NOVEL IMIDAZOPYRAZINE DERIVATIVES” (Hoffmann-La Roche Inc., priority 2020, published 2023)", "note": "Structures can show the parent of a compound that is named as a salt."}
{"test_system": "Acinetobacter baumannii ATCC17961", "test": "Antimicrobial susceptibility testing: 90% growth inhibitory concentration (IC90) determination in Iso-Sensitest broth, OD600 growth", "format": "cell-based", "settings": "Acinetobacter baumannii, ATCC17961, 16 h, read-out: A. baumannii ATCC 17961 IC90 (uM), strain ATCC 17961, OD600 growth over 16 h", "method_in_brief": "(§1)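 OD600 read every 20 min for 16 h at 35±2° C; inhibition taken in log phase to derive IC90. Twofold, 10-point dilutions (e.g. 50–0.097 μM final), inoculum ~5×10^(5) CFU/ml.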", "units": {"IC90": "µM"}}
{"smiles": "N#CCn1cc(-c2cnc3c(Nc4ccc(C(=O)NCC(=O)N[C@H]5CCNC5)c(Cl)c4)nccn23)c(C(F)(F)F)n1", "note": "[Example 731, 2-chloro-4-[[3-[1-(cyanomethyl)-3-(trifluoromethyl)pyrazol-4-yl]imidazo[1,2-a]pyrazin-8-yl]amino]-N-[2-oxo-2-[[(3S)-pyrrolidin-3-yl]amino]ethyl]benzamide formate]", "IC90": 0.476}
{"smiles": "C[C@@H](NC(=O)c1ccc(Nc2nccn3c(-c4cn(CC#N)nc4C(F)(F)F)cnc23)cc1Cl)C(=O)NC1CC(N)C1", "note": "(stereo partly drawn) [Example 683, N-[(1R)-2-[(3-aminocyclobutyl)amino]-1-methyl-2-oxo-ethyl]-2-chloro-4-[[3-[1-(cyanomethyl)-3-(trifluoromethyl)pyrazol-4-yl]imidazo[1,2-a]pyrazin-8-yl]amino]benzamide formate]", "IC90": 0.336}
{"smiles": "CCc1cc(Nc2nccn3c(-c4c[nH]nc4C(F)(F)F)cnc23)ccc1C(=O)NCCNC(=O)[C@@H](N)CNC(=N)N", "note": "[Example 213, N-[2-[[(2S)-2-amino-3-carbamimidamidopropanoyl]amino]ethyl]-2-ethyl-4-[[3-[3-(trifluoromethyl)-1H-pyrazol-4-yl]imidazo[1,2-a]pyrazin-8-yl]amino]benzamide formate]", "IC90": 0.378}
{"smiles": "CCc1cc(Nc2nccn3c(-c4cn(CC(F)F)nc4C(F)(F)F)cnc23)ccc1C(=O)NC1C2CNCC21", "note": "(stereo not drawn) [Example 562, N-(3-azabicyclo[3.1.0]hexan-6-yl)-4-((3-(1-(2,2-difluoroethyl)-3-(trifluoromethyl)-1H-pyrazol-4-yl)imidazo[1,2-a]pyrazin-8-yl)amino)-2-ethylbenzamide formate]", "IC90": 0.305}
{"smiles": "CCc1cc(Nc2nccn3c(-c4cn(CC#N)nc4C(F)(F)F)cnc23)ccc1C(=O)NCCNC(=O)CN", "note": "[Example 620, N-(2-(2-aminoacetamido)ethyl)-4-((3-(1-(cyanomethyl)-3-(trifluoromethyl)-1H-pyrazol-4-yl)imidazo[1,2-a]pyrazin-8-yl)amino)-2-ethylbenzamide formate]", "IC90": 0.139}
{"smiles": "Cc1cc(Nc2nccn3c(-c4cn(CC#N)nc4C(F)(F)F)cnc23)cc(F)c1C(=O)N[C@H](C)CNC(=O)[C@H](C)N", "note": "[Example 722, N-((R)-1-((S)-2-aminopropanamido)propan-2-yl)-4-((3-(1-(cyanomethyl)-3-(trifluoromethyl)-1H-pyrazol-4-yl)imidazo[1,2-a]pyrazin-8-yl)amino)-2-fluoro-6-methylbenzamide formate]", "IC90": 0.458}
{"smiles": "CCc1cc(Nc2nccn3c(-c4c[nH]nc4C(F)(F)F)cnc23)ccc1C(=O)NCCCNC(=O)[C@H](C)N", "note": "[Example 652, (S)-N-(3-(2-aminopropanamido)propyl)-2-ethyl-4-((3-(3-(trifluoromethyl)-1H-pyrazol-4-yl)imidazo [1,2-a]pyrazin-8-yl)amino)benzamide formate]", "IC90": 0.259}
{"smiles": "NCCCNC(=O)N1CCN(C(=O)c2ccc(Nc3nccn4c(-c5c[nH]nc5C(F)(F)F)cnc34)cc2Cl)CC1", "note": "[Example 390, N-(3-aminopropyl)-4-[2-chloro-4-[[3-[3-(trifluoromethyl)-1H-pyrazol-4-yl]imidazo[1,2-a]pyrazin-8-yl]amino]benzoyl]piperazine-1-carboxamide formate]", "IC90": 0.177}
{"smiles": "CCc1cc(Nc2nccn3c(-c4cn(CC(F)F)nc4C(F)(F)F)cnc23)ccc1C(=O)NCCNC(=O)C1CCNCC1", "note": "[Example 554, N-(2-(4-((3-(1-(2,2-difluoroethyl)-3-(trifluoromethyl)-1H-pyrazol-4-yl)imidazo[1,2-a]pyrazin-8-yl)amino)-2-ethylbenzamido)ethyl) piperidine-4-carboxamide formate]", "IC90": 0.198}
{"smiles": "CCc1cc(Nc2nccn3c(-c4cn(CCF)nc4C(F)(F)F)cnc23)ccc1C(=O)NCCOCCN1CCOCC1", "note": "[Example 737, 2-ethyl-4-((3-(1-(2-fluoroethyl)-3-(trifluoromethyl)-1H-pyrazol-4-yl)imidazo[1,2-a]pyrazin-8-yl)amino)-N-(2-(2-morpholinoethoxy)ethyl)benzamide formate]", "IC90": 0.495}
{"test_system": "Acinetobacter baumannii ATCC17961", "test": "Antimicrobial susceptibility testing: 90% growth inhibitory concentration (IC90) determination in Iso-Sensitest broth, OD600 growth", "format": "cell-based", "settings": "Acinetobacter baumannii, ATCC17961, 16 h, strain ATCC 17961, OD600 growth over 16 h, read-out: A. baumannii ATCC 17961 IC90", "method_in_brief": "as §1", "units": {"IC90": "µM"}}
{"smiles": "O=C(c1ccc(Nc2nccn3c(-c4c[nH]nc4C(F)(F)F)cnc23)cc1Cl)N1CCN(C(=O)[C@@H]2CCNC2)CC1", "note": "[Example 197, [2-chloro-4-[[3-[3-(trifluoromethyl)-1H-pyrazol-4-yl]imidazo[1,2-a]pyrazin-8-yl]amino]phenyl]-[4-[(3R)-pyrrolidine-3-carbonyl]piperazin-1-yl]methanone]", "IC90": 0.16}
{"smiles": "N[C@@H]1CCN(C(=O)c2ccc(Nc3nccn4c(-c5c[nH]nc5C(F)(F)F)cnc34)cc2Cl)C1", "note": "[Example 324, [(3R)-3-aminopyrrolidin-1-yl]-[2-chloro-4-[[3-[3-(trifluoromethyl)-1H-pyrazol-4-yl]imidazo[1,2-a]pyrazin-8-yl]amino]phenyl]methanone]", "IC90": 1.23}
{"smiles": "N#CCn1cc(-c2cnc3c(Nc4ccc(C(=O)N5CCN(C(=O)[C@H]6CCCN6)CC5)c(Cl)c4)nccn23)c(C(F)(F)F)n1", "note": "[Example 186, 2-[4-[8-[3-chloro-4-[4-[(2R)-pyrrolidine-2-carbonyl]piperazine-1-carbonyl]anilino]imidazo[1,2-a]pyrazin-3-yl]-3-(trifluoromethyl)pyrazol-1-yl]acetonitrile]", "IC90": 0.206}
{"smiles": "CCc1cc(Nc2nccn3c(-c4cn(CCF)nc4C(F)(F)F)cnc23)ccc1C(=O)NCCCN", "note": "[Example 56, N-(3-aminopropyl)-2-ethyl-4-[[3-[1-(2-fluoroethyl)-3-(trifluoromethyl)pyrazol-4-yl]imidazo[1,2-a]pyrazin-8-yl]amino]benzamide]", "IC90": 0.194}
{"smiles": "CCc1cc(Nc2nccn3c(-c4c[nH]nc4C(F)(F)F)cnc23)ccc1C(=O)NCC(=O)N1CCNCC1", "note": "[Example 753, 2-ethyl-N-(2-oxo-2-piperazin-1-yl-ethyl)-4-[[3-[3-(trifluoromethyl)-1H-pyrazol-4-yl]imidazo[1,2-a]pyrazin-8-yl]amino] benzamide formate]", "IC90": 0.659}
{"smiles": "O=C(c1ccc(Nc2nccn3c(-c4c[nH]nc4C(F)(F)F)cnc23)cc1Cl)N1CCN(C(=O)[C@]2(O)CCCNC2)CC1", "note": "[Example 247, [2-chloro-4-[[3-[3-(trifluoromethyl)-1H-pyrazol-4-yl]imidazo[1,2-a]pyrazin-8-yl]amino]phenyl]-[4-[(3S)-3-hydroxypiperidine-3-carbonyl]piperazin-1-yl]methanone]", "IC90": 0.116}
{"smiles": "N#CCn1cc(-c2cnc3c(Nc4ccc(C(=O)NC56CC(N)(C5)C6)c(Cl)c4)nccn23)c(C(F)(F)F)n1", "note": "[Example 88, N-(3-amino-1-bicyclo[1.1.1]pentanyl)-2-chloro-4-[[3-[1-(cyanomethyl)-3-(trifluoromethyl)pyrazol-4-yl]imidazo[1,2-a]pyrazin-8-yl]amino]benzamide]", "IC90": 0.431}
{"smiles": "CCc1cc(Nc2nccn3c(-c4cn(C5CCCC5)nc4C(F)(F)F)cnc23)ccc1C(=O)NCCOCCN", "note": "[Example 26, N-[2-(2-aminoethoxy)ethyl]-4-[[3-[1-cyclopentyl-3-(trifluoromethyl)pyrazol-4-yl]imidazo[1,2-a]pyrazin-8-yl]amino]-2-ethylbenzamide hydrochloride]", "IC90": 0.282}
{"smiles": "O=C(CNCCNC(=O)c1ccc(Nc2nccn3c(-c4cn(CC(F)F)nc4C(F)(F)F)cnc23)cc1Cl)N[C@@H]1CCNC1", "note": "[Example 823, (R)-2-chloro-4-(3-(1-(2,2-difluoroethyl)-3-(trifluoromethyl)-1H-pyrazol-4-yl)imidazo[1,2-a]pyrazin-8-yl)amino)-N-(2-((2-oxo-2-(pyrrolidin-3-ylamino)ethyl)amino)ethyl) benzamide formate]", "IC90": 0.18}
{"smiles": "CCc1cc(Nc2nccn3c(-c4cn(CC#N)nc4C(F)(F)F)cnc23)ccc1C(=O)NCC1CCN(CC2CNC2)CC1", "note": "[Example 828, N-((1-(azetidin-3-ylmethyl)piperidin-4-yl)methyl)-4-((3-(1-(cyanomethyl)-3-(trifluoromethyl)-1H-pyrazol-4-yl)imidazo[1,2-α]pyrazin-8-yl)amino)-2-ethylbenzamide 2,2,2-trifluoroacetate]", "IC90": 0.35}
{"smiles": "CCc1cc(Nc2nccn3c(-c4cn(CC(F)F)nc4C(F)(F)F)cnc23)ccc1C(=O)NCC(=O)NCC1CCCN1", "note": "(stereo not drawn) [Example 548, 4-[[3-[1-(2,2-difluoroethyl)-3-(trifluoromethyl)pyrazol-4-yl]imidazo[1,2-a]pyrazin-8-yl]amino]-2-ethyl-N-[2-oxo-2-(pyrrolidin-2-ylmethylamino)ethyl] benzamide formate]", "IC90": 0.267}
{"smiles": "CCc1cc(Nc2nccn3c(-c4cn(CC#N)nc4C(F)(F)F)cnc23)ccc1C(=O)NCCCNC(=O)N1CC[C@@H](N)C1", "note": "[Example 685, (R)-3-amino-N-(3-(4-((3-(1-(cyanomethyl)-3-(trifluoromethyl)-1H-pyrazol-4-yl)imidazo[1,2-a]pyrazin-8-yl)amino)-2-ethylbenzamido)propyl) pyrrolidine-1-carboxamide formate]", "IC90": 0.34}
{"test_system": "Acinetobacter baumannii ATCC17961", "test": "Antimicrobial susceptibility testing: 90% growth inhibitory concentration (IC90) determination in Iso-Sensitest broth, OD600 growth", "format": "cell-based", "settings": "read-out: A. baumannii ATCC 17961 IC90, strain ATCC 17961, OD600 growth over 16 h", "method_in_brief": "as §1", "units": {"IC90": "µM"}}
{"smiles": "Cc1cc(Nc2nccn3c(-c4c[nH]nc4C(F)(F)F)cnc23)ccc1C(=O)N1CCN(C(=O)[C@@H]2C[C@@H](O)CN2)CC1", "note": "[Example 459, formic acid; [4-[(2S,4R)-4-hydroxypyrrolidine-2-carbonyl)piperazin-1-yl]-[2-methyl-4-[[3-[3-(trifluoromethyl)-1H-pyrazol-4-yl]imidazo[1,2-a]pyrazin-8-yl]amino]phenyl]methanone]", "IC90": 0.762}
{"test_system": "Acinetobacter baumannii ATCC17961", "test": "Antimicrobial susceptibility testing: 90% growth inhibitory concentration (IC90) determination in Iso-Sensitest broth, OD600 growth", "format": "cell-based", "settings": "strain ATCC 17961, OD600 growth over 16 h, read-out: A. baumannii ATCC 17961 IC90", "method_in_brief": "as §1", "units": {"IC90": "µM"}}
{"smiles": "C#CCNCCCNC(=O)c1c(C)cc(Nc2nccn3c(-c4cn(CC#N)nc4C(F)(F)F)cnc23)cc1F", "note": "[Example 76, 4-[[3-[1-(cyanomethyl)-3-(trifluoromethyl)pyrazol-4-yl]imidazo[1,2-a]pyrazin-8-yl]amino]-2-fluoro-6-methyl-N-[3-(prop-2-ynylamino)propyl] benzamide]", "IC90": 2.09}
